Experimental data as given in patent US12053441B2, “Formulations for improving the delivery of hydrophobic agents” (THE ROYAL INSTITUTION FOR THE ADVANCEMENT OF LEARNING / …, priority 2018, dated 2024).
Counter-ions that a name gives are not always drawn.

System: UQ-deficient cells (Mclk1 KO or DKO cells)
Test: Screening for compounds that increase survival or respiration of UQ-deficient cells
Format: cell-based, mouse
Source text: Four different screening methods were developed. The screening methods 1 to 3 are based on rescue-of-lethality in glucose-free galactose-containing media. The presence of galactose instead of glucose forces the cells to rely on oxidative phosphorylation for energy production. Screening method 4 is based on rescue of respiration, implying that processes immediately dependent on UQ have been rescued. Libraries of small molecules were screened for compounds and/or agents that increase survival of UQ-deficient cells (e.g., Mclk1 KO or DKO cells) in standard or modified galactose media depending on the screen settings.
The screen uses cells lacking UQ (e.g., Mclk1 KO cells) and consists of three key steps: • 1) Day 0: preparation of Mclk1 KO cells in 96-well plates in standard (glucose-containing) culture medium. • 2) Day 1: changing to glucose-free galactose-containing medium and adding compounds to be screened at a concentration of approximately 10 μM. • 3) Day 4 to 6: following 3 to 5 days of incubation with the compound to be screened, media were removed and cell viability was assayed by resazurin reduction assay.
The screen also uses cells lacking UQ biosynthesis (e.g., DKO cells) and its protocol is essentially the same as the galactose-only screen except that in step 2, a minimal amount of UQ10 is added into the galactose screening media at a concentration at which the added UQ10 is insufficient by itself to support survival.
The screen uses Mclk1 SKO cells and its protocol is essentially the same as the galactose-only screen except that in step 2, the screening medium is added with 2,4-DHB at a concentration that allows the KO cells to restore some UQ biosynthetic ability but not sufficiently to allow for a level of UQ production that is sufficient for respiration-dependent growth. Thus, under these conditions a compound that can boost the overall level of UQ biosynthesis might allow the cells to make enough UQ to survive in a respiration-dependent medium. Such a screen can identify compounds that boost UQ biosynthesis at any level, including at the level of gene expression.
This screening approach aims to directly identify compounds that can boost mitochondrial respiratory chain activity in respiration-deficient cells. […] For this, cells were seeded into XF24 V7 culture plates and treated with testing compounds for 1 to 2 days before a treatment effect on cellular respiration is measured using the Seahorse XF-24e Flux Analyzer. The XF assay was the same as above described except galactose (10 mM) rather glucose was used as the sugar source to increase respiration rate and thus assay sensitivity.

| SMILES | identified by the screening methods as useful for UQ deficiency |
| --- | --- |
| CC1(C)CCC(CN2CCN(c3ccc(C(=O)NS(=O)(=O)c4ccc(NCC5CCOCC5)c([N+](=O)[O-])c4)c(Oc4cnc5[nH]ccc5c4)c3)CC2)=C(c2ccc(Cl)cc2)C1 [ABT-199] | identified |
| C[C@@H]1COCCN1c1cc(C2(S(C)(=O)=O)CC2)nc(-c2cccc3[nH]ccc23)n1 [AZ20] | identified |
| CNC(=O)c1cccc(-c2ccc3c(N4CCOC[C@@H]4C)nc(N4CCOC[C@@H]4C)nc3n2)c1 [AZD2014] | identified |
| Nc1cc(C(F)(F)F)c(-c2cc(N3CCOCC3)nc(N3CCOCC3)n2)cn1 [BKM120, buparlisib] | identified |
| CS(=O)(=O)N1CCc2c(-c3cnc(N)nc3)nc(N3CCOCC3)nc21 [CH5132799] | identified |
| CC(C)C[C@H](NC(=O)CNC(=O)c1cc(Cl)ccc1Cl)B(O)O [MLN2238] | identified |
| CC(C)n1nc(-c2cc3cc(O)ccc3[nH]2)c2c(N)ncnc21 [PP242] | identified |
| CCc1c2c(nc3ccc(O)cc13)-c1cc3c(c(=O)n1C2)COC(=O)[C@]3(O)CC [SN-38] | identified |
| Nc1nc(N)c2nc(-c3cccc(O)c3)cnc2n1 [TG100713] | identified |
| CNC(=O)Nc1ccc(-c2nc(N3CC4CCC(C3)O4)c3cnn(C4CCC5(CC4)OCCO5)c3n2)cc1 [WYE-125132] | identified |
| CNC1CCCN(c2c(F)cc3c(=O)c(C(=O)O)cn(C4CC4)c3c2OC)C1 (stereo not drawn) [balofloxacin] | identified |
| CCC(=O)OCC(=O)[C@@]1(OC(=O)CC)[C@@H](C)C[C@H]2[C@@H]3CCC4=CC(=O)C=C[C@]4(C)[C@@]3(F)[C@@H](O)C[C@@]21C [betamethasone dipropionate] | identified |
| CCCCC(=O)O[C@]1(C(=O)CO)[C@@H](C)C[C@H]2[C@@H]3CCC4=CC(=O)C=C[C@]4(C)[C@@]3(F)[C@@H](O)C[C@@]21C [betamethasone valerate] | identified |
| CC(=O)OCC(=O)[C@@]12N=C(C)O[C@@H]1C[C@H]1[C@@H]3CCC4=CC(=O)C=C[C@]4(C)[C@H]3[C@@H](O)C[C@@]12C [deflazacort] | identified |
| CC1(C)O[C@@H]2C[C@H]3[C@@H]4CCC5=CC(=O)C=C[C@]5(C)[C@H]4[C@@H](O)C[C@]3(C)[C@]2(C(=O)CO)O1 [desonide] | identified |
| CC(=O)OCC(=O)[C@@]1(O)CC[C@H]2[C@@H]3CCC4=CC(=O)C=C[C@]4(C)[C@@]3(Cl)[C@@H](Cl)C[C@@]21C [dichlorisone acetate] | identified |
| C[C@H]1c2cccc(O)c2C(=O)C2=C(O)[C@]3(O)C(=O)C(C(N)=O)=C(O)[C@@H](N(C)C)[C@@H]3[C@@H](O)[C@@H]21 [doxycycline HCl] | identified |
| COc1cc2c(cc1Cc1cccc(Cl)c1F)c(=O)c(C(=O)O)cn2[C@H](CO)C(C)C [elvitegravir] | identified |
| CC1(C)O[C@@H]2C[C@H]3[C@@H]4C[C@H](F)C5=CC(=O)C=C[C@]5(C)[C@@]4(F)[C@@H](O)C[C@]3(C)[C@]2(C(=O)CO)O1 [fluocinolone acetonide] | identified |
| CC(=O)O[C@]1(C(C)=O)CC[C@H]2[C@@H]3C[C@H](C)C4=CC(=O)C=C[C@]4(C)[C@@]3(F)[C@@H](O)C[C@@]21C [fluorometholone acetate] | identified |
| CCC(=O)O[C@]1(C(=O)SCF)[C@H](C)C[C@H]2[C@@H]3C[C@H](F)C4=CC(=O)C=C[C@]4(C)[C@@]3(F)[C@@H](O)C[C@@]21C [fluticasone propionate] | identified |
